Key:
[1] = biological target: T1, human noradrenaline transporter (hNET) (Homo sapiens, UniProt P23975); experiment: biochemical; type: binding
T1 construct: expressed in transfected cells; host or cells: COS-7 cells (ATCC), transient transfection with metafectene

[2] = biological target: T1, human noradrenaline transporter (hNET); experiment: cell-based

T1 sequence (P23975 whole entry): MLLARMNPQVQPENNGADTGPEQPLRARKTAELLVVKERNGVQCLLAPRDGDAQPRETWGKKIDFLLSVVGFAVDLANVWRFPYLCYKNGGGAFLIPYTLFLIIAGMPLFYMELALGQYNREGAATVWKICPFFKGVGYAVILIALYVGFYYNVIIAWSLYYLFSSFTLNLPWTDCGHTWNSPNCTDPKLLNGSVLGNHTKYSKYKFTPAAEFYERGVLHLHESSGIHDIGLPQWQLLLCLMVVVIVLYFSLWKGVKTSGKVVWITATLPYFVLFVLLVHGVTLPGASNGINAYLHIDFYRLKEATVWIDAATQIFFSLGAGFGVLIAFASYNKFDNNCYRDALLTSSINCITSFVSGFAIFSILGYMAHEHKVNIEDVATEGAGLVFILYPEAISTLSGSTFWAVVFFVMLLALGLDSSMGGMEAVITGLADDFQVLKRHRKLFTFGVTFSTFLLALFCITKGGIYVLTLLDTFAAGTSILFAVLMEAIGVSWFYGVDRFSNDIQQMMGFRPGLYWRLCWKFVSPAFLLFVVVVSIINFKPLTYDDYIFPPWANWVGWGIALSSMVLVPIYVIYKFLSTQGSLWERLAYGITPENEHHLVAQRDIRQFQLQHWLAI

| Compound | IC50 [1] [nM] | IC50 [2] [nM] |
| --- | --- | --- |
| CC(C)C[C@@H]1NC(=O)[C@H](CCCCN)NC(=O)[C@H](Cc2ccc(O)cc2)NC(=O)CNC(=O)[C@@H]2CSSC[C@H](NC1=O)C(=O)N[C@@H](Cc1c[nH]cn1)C(=O)N1C[C@H](O)C[C@H]1C(=O)N[C@@H](C(N)=O)CSSC[C@H](NC(=O)[C@@H](NC(=O)CNC(=O)[C@@H]1CCC(=O)N1)C(C)C)C(=O)N2 [SEQ ID NO. 5, Xaa1 Gly Val Cys Cys Gly Tyr Lys Leu Cys His Xaa3 Xaa5] | 4170 | 575 |
| COc1ccc(C[C@@H]2NC(=O)CNC(=O)[C@@H]3CSSC[C@H](NC(=O)[C@H](CC(C)C)NC(=O)[C@H](CCCCN)NC2=O)C(=O)N[C@@H](Cc2c[nH]cn2)C(=O)N2C[C@H](O)C[C@H]2C(=O)N[C@H](C(N)=O)CSSC[C@H](NC(=O)[C@@H](NC(=O)CNC(=O)[C@@H]2CCC(=O)N2)C(C)C)C(=O)N3)cc1 [SEQ ID NO. 6, Xaa1 Gly Val Cys Cys Gly Xaa4 Lys Leu Cys His Xaa3 Cys] | 1150 | 214 |
| CC(C)C[C@@H]1NC(=O)[C@H](CCCCN)NC(=O)[C@H](Cc2ccc(O)cc2)NC(=O)CNC(=O)[C@@H]2CSSC[C@H](NC1=O)C(=O)N[C@@H](Cc1c[nH]cn1)C(=O)N1C[C@H](O)C[C@H]1C(=O)N[C@H](C(=O)O)CSSC[C@H](NC(=O)[C@@H](NC(=O)CNC(=O)[C@@H]1CCC(=O)N1)C(C)C)C(=O)N2 [SEQ ID NO. 9, Xaa1 Gly Val Cys Cys Gly Tyr Lys Leu Cys His Xaa3 Cys —OH] | 8320 | – |

Reference: US7851444B2 (priority 2002, dated 2010)
